Source: patent publication US10632119B2, “Fused bicyclic 2,4-diaminopyrimidine derivative as a dual ALK and FAK inhibitor” (priority 2012, dated 2020)
In brackets after ≈: the same amount, converted by molar mass. Where two headings read alike, the source gives them in different places.

Tests used:
ALK [1] = biological target: T1, ALK (Homo sapiens, UniProt Q9UM73); test: ALK enzymatic assay; assay type: biochemical
Target sequence in this assay (Q9UM73 19-1620): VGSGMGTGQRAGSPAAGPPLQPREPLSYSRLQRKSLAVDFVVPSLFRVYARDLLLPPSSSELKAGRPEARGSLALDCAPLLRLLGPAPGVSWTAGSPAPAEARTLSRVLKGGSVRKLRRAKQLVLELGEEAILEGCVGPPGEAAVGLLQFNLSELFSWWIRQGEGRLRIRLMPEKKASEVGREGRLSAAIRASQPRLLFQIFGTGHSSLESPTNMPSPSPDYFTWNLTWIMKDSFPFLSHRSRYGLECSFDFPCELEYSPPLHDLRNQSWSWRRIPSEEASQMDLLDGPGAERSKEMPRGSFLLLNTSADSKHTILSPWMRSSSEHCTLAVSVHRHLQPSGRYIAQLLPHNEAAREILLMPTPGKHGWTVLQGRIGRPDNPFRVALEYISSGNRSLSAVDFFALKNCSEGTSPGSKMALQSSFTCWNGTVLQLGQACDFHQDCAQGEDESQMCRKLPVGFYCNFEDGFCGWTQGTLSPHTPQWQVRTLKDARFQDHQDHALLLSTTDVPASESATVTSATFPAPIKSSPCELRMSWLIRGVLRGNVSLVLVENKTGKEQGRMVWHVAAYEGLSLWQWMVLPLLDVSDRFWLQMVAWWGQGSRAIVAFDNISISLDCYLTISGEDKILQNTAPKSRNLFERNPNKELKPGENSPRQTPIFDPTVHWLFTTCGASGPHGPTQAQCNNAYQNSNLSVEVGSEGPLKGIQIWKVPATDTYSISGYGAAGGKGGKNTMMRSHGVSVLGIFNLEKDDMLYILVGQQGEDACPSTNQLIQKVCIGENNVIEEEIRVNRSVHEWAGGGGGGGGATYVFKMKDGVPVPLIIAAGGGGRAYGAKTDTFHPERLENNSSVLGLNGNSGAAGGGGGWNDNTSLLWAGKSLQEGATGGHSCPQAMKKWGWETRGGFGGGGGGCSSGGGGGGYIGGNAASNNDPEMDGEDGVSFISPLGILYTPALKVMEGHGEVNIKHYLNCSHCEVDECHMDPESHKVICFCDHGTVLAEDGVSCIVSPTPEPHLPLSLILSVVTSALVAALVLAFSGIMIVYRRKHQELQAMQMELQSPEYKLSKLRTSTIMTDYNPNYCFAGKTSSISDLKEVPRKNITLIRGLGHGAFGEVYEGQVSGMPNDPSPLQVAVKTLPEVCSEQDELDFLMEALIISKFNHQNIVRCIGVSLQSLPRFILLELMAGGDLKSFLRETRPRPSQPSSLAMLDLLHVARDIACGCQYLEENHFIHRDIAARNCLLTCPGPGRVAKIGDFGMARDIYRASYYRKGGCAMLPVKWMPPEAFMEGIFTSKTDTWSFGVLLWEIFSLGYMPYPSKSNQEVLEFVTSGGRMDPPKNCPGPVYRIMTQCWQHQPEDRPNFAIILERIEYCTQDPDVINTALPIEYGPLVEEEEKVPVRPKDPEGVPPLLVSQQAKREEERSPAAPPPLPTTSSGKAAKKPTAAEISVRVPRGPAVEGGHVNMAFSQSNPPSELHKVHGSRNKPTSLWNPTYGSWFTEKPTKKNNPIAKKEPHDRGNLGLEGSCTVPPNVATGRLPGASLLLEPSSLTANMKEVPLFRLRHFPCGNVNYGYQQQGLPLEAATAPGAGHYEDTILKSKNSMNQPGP

ALK [2] = biological target: T1, ALK; test: ALK cellular assay; assay type: cell-based
Target sequence in this assay (Q9UM73 with tags, fused parts or gaps): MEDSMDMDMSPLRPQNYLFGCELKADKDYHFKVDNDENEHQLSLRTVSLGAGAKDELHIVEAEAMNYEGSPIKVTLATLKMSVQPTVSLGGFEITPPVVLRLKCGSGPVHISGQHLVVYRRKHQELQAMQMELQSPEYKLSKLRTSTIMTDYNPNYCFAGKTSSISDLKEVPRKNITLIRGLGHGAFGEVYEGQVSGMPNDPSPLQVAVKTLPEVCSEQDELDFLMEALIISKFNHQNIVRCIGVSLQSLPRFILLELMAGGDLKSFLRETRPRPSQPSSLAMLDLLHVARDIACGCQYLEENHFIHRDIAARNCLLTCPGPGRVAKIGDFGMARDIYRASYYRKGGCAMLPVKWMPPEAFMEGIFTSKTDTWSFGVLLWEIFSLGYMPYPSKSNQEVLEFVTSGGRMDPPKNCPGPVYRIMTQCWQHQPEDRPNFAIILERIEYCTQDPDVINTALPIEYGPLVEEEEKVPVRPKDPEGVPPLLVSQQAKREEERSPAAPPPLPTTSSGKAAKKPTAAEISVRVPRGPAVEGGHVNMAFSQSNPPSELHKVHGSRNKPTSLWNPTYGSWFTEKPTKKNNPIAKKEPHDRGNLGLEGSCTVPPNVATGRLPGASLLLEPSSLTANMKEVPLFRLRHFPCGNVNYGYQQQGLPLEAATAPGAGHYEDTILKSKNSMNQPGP

FAK [3] = biological target: T2, FAK (Homo sapiens, UniProt Q05397); test: FAK enzymatic assay; assay type: biochemical
T2 sequence (Q05397 whole entry): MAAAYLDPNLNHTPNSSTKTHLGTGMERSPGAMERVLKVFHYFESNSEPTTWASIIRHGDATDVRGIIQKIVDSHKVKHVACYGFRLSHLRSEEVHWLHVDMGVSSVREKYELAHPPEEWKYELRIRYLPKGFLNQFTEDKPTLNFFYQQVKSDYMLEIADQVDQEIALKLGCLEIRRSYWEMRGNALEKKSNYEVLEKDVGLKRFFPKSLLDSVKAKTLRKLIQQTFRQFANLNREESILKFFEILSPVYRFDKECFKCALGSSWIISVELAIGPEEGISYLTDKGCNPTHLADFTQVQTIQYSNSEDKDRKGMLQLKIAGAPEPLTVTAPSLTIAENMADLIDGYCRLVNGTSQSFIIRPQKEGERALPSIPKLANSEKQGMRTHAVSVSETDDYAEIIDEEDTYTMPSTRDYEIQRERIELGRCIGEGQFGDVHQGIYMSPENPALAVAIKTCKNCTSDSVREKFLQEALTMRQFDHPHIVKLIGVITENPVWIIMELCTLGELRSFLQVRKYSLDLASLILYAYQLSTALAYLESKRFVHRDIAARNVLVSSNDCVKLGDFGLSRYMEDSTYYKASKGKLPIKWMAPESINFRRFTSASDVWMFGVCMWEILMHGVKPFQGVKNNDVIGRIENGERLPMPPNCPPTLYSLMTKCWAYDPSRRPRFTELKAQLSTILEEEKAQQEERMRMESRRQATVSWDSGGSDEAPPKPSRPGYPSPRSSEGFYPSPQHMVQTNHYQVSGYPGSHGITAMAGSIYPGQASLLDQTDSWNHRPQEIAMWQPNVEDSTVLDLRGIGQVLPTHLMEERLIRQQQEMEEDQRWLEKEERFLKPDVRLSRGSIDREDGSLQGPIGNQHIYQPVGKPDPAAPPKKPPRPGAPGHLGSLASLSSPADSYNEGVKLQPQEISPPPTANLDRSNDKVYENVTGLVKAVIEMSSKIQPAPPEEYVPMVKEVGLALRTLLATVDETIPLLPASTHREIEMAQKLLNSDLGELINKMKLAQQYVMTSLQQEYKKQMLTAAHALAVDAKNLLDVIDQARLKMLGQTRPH

FAK [4] = biological target: T2, FAK; test: FAK cellular assay; assay type: cell-based
Adrenergic α1B (R) = Adrenergic α1B (R) (Rattus norvegicus, UniProt P15823); test: Receptor selectivity (Cerep); assay type: binding
Adrenergic α1B (R), sequence (P15823 whole entry): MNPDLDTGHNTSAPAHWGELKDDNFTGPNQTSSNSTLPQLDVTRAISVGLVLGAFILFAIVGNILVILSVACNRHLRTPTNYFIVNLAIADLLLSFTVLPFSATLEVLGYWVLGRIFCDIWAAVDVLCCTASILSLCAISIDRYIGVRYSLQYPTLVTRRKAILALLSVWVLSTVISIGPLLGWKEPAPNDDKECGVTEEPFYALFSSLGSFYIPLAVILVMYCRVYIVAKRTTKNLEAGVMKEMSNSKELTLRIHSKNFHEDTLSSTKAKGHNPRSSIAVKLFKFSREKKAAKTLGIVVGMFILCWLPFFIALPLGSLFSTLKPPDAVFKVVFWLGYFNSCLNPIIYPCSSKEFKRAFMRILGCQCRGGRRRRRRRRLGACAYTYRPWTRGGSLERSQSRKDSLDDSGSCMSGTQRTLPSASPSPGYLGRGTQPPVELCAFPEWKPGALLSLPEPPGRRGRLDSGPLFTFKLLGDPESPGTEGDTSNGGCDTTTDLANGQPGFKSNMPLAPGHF

Adrenergic α1D (H) = Adrenergic α1D (H) (Homo sapiens, UniProt P25100); test: Receptor selectivity (Cerep); assay type: binding
Adrenergic α1D (H), sequence (P25100 whole entry): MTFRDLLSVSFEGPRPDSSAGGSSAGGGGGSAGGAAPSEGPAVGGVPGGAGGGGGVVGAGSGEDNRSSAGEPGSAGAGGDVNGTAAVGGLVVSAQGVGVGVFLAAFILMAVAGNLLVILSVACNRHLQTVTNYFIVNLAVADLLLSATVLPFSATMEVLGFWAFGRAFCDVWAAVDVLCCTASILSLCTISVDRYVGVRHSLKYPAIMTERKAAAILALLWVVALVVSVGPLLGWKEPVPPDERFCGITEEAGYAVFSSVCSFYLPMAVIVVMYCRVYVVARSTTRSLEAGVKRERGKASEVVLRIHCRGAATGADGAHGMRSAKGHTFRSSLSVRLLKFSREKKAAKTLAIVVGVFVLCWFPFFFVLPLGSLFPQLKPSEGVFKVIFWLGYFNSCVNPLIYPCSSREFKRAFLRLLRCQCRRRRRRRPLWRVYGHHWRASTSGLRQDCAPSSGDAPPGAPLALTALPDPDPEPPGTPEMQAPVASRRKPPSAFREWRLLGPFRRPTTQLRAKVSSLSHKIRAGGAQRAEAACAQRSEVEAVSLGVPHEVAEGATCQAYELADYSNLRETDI

hERG = hERG (Homo sapiens, UniProt Q12809); test: hERG patch clamp; assay type: cell-based
Equilibrium solubility = assay type: physicochemical; conditions: thermodynamic from solid
[5] = In vitro metabolic stability, mouse; assay type: in vitro ADME; conditions: mouse (M); read-out: In vitro metabolic stability t1/2
[6] = In vitro metabolic stability, rat; assay type: in vitro ADME; conditions: rat (R); read-out: In vitro metabolic stability t1/2
[7] = In vitro metabolic stability, monkey; assay type: in vitro ADME; conditions: monkey (Mo); read-out: In vitro metabolic stability t1/2
[8] = In vitro metabolic stability, human; assay type: in vitro ADME; conditions: human (H); read-out: In vitro metabolic stability t1/2
[9] = In vitro metabolic stability, dog; assay type: in vitro ADME; conditions: dog (D); read-out: In vitro metabolic stability t1/2
CYP 1A2 = CYP 1A2 (Homo sapiens, UniProt P05177); test: CYP inhibition; assay type: in vitro ADME
CYP 2C9 = CYP 2C9 (Homo sapiens, UniProt P11712); test: CYP inhibition; assay type: in vitro ADME
CYP 2C19 = CYP 2C19 (Homo sapiens, UniProt P33261); test: CYP inhibition; assay type: in vitro ADME
CYP 2C19, sequence (P33261 whole entry): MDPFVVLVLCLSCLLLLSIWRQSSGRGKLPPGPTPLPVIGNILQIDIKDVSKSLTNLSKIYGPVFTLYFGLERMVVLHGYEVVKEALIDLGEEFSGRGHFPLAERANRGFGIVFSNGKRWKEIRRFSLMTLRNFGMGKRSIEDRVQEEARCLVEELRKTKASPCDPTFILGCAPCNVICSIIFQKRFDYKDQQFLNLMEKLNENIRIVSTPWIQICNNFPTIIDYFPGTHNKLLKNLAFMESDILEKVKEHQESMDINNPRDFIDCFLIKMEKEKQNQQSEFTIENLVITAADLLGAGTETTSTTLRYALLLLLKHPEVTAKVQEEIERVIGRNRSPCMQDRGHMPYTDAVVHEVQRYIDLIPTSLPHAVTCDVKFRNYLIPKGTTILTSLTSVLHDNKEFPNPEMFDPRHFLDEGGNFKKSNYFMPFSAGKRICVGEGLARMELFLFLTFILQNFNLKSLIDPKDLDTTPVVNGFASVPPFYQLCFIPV

CYP 2D6 = CYP 2D6 (Homo sapiens, UniProt P10635); test: CYP inhibition; assay type: in vitro ADME
Caco-2 permeability = assay type: in vitro ADME; conditions: human
Protein binding, mouse = assay type: in vitro ADME; conditions: mouse (M)
Protein binding, dog = assay type: in vitro ADME; conditions: dog (D)
Protein binding, human = assay type: in vitro ADME; conditions: human (H)
Rat bioavailability = conditions: in vivo
Mouse bioavailability = assay type: in vivo; conditions: CEP-37440 as amorphous HCl salt
Monkey bioavailability = conditions: in vivo, po
in vivo = test: in vivo
Description: One additional group of 20 animals/sex served as the control and received the vehicle, distilled water. The drug or vehicle was administered to all groups via oral gavage, once a day for 91 consecutive days, at a dose volume of 10 mL/kg/dose. Following the dosing period, five animals/sex/group were maintained for a 4-week recovery period. Additionally, one group of three animals/sex and three groups of nine animals/sex/group served as toxicokinetic (TK) animals and received the vehicle or drug in the same manner and at the same dose levels as the main study groups.
Observations for morbidity, mortality, injury, and the availability of food and water were conducted at least twice daily for all animals. Clinical observations were conducted on main study animals weekly. Body weights were measured and recorded for all animals prior to initiation of dosing (week −1) and weekly during the study. Food consumption was measured and recorded for main study animals weekly. Ophthalmoscopic examinations were conducted on main study animals pretest and prior to the terminal and recovery necropsies. Blood samples for designated clinical pathology evaluations were collected from main study animals at the end of week 4 and at the terminal and recovery necropsies. Urine samples for urinalysis evaluations were collected from main study animals prior to the terminal and recovery necropsies. Blood samples for determination of the plasma concentrations of the drug were collected from designated TK animals at designated time points on day 1, week 4, and week 13. After the final blood collection, the TK animals were euthanized and the carcasses were discarded. At the end of the terminal and recovery periods, necropsy examinations were performed, organ weights were recorded, and selected tissues were microscopically examined.

[10] = Description: Five animals/sex were assigned to each dose group and were given daily oral doses of 0 (vehicle), 20, 40 or 80 mg/kg for up to 91 days. […] Three animals/sex/group were scheduled for termination at the end of the dosing period (Day 92) and two animals/sex/group were assigned to a 6-week non-dosing recovery phase and were terminated on Day 134.
Urine samples for urinalysis only were obtained by bladder puncture during necropsy. Urine samples for urinalysis and urine chemistry analysis were also obtained by drainage from special stainless-steel cage pans in Weeks −1, 1, 4, and 13, and from the remaining animals near the end of the recovery period.
Blood samples were collected for toxicokinetic analysis at various time points on Day 1 and during Weeks 4 and 13. […] At termination, a full necropsy was conducted on all animals, and tissues were collected, preserved, processed, and examined microscopically by a Veterinary Pathologist certified by the American College of Veterinary Pathologists.

[11] = remark: listed apart in the source
Description: The following parameters and end points were evaluated in this study: clinical signs (mortality/moribundity checks, cage side observations and food consumption, and postdose observations), body weights, veterinary physical examinations, lung evaluations, ophthalmology, electrocardiography, blood pressure and heart rate measurements, clinical pathology parameters (hematology, coagulation, clinical chemistry, urinalysis, urine chemistry, and troponin I analysis), toxicokinetic parameters, gross necropsy findings, organ weights, and histopathologic examinations.

IR = IR (Homo sapiens, UniProt P06213); test: biochemical
CYP3A4 = CYP3A4 induction in vitro
[12] = system: NCI-H2228 NSCLC tumor xenografts; test: Anti-tumor activity, EML4-ALK positive NCI-H2228 NSCLC xenograft; conditions: for anti-tumor efficacy: 12 days
Description: (§1) Anti-Tumor Activity in EML4-ALK Positive (NCI-H2228 and NCI-H3122) NSCLC Tumor Xenografts in Mice with Oral Dosing
(§2) Generation of EML4-ALK-positive and EML4-ALK-negative NSCLC Subcutaneous Tumor Xenografts in Scid Mice Female Scid/Beige mice (6-8 weeks, Taconic, Hudson. N.Y.) were maintained 5/cage in microisolator units on a standard laboratory diet (Teklad Labchow, Harlan Teklad, Madison, Wis.). Animals were housed under humidity- and temperature controlled conditions and the light/dark cycle was set at 12-hour intervals. Mice were quarantined at least 1 week prior to experimental manipulation. […] The mice were monitored until the tumor xenograft volumes reached 200-500 mm3.
(§3) The length (L) and width (W) of each tumor were measured with vernier calipers and the mouse body weight was determined every two to three days. […] Percent tumor growth inhibition (% TGI) was calculated as follows: (tumor volume of the control group at end of treatment—tumor volume of the treated group at the end of treatment)/tumor volume of the control group at the end of treatment. […] Complete tumor regression (CR) was defined as the tumor volume of the treated group at the end of treatment being less than 5% of the tumor volume of the treated group as the start of treatment. Statistical analyses of tumor volumes and mouse body weights were carried out with the Mann-Whitney Rank Sum Test. Plasma and tumor samples were obtained at 2 hours post final dose at each dose level, and the compound levels in plasma and tumor lysates were measured by LC-MS/MS

[13] = system: NCI-H3122 NSCLC tumor xenografts; test: Anti-tumor activity, EML4-ALK positive NCI-H3122 NSCLC xenograft; conditions: for anti-tumor efficacy: 12 days
Description: as §1, §2, §3

## COc1c(Nc2ncc(Cl)c(N[C@H]3[C@@H](C(N)=O)[C@@H]4C=C[C@H]3C4)n2)ccc2c1CC[C@@H](N1CCOCC1)CC2 [CEP-28122, (1 S,2S,3R,4R)-3-[5-chloro-2-((S)-1-methoxy-7-morpholin-4-yl-6,7,8,9-tetrahydro-5H-benzocyclohepten-2-ylamino)-pyrimidin-4-ylamino]-bicyclo[2.2.1]hept-5-ene-2-carboxylic acid amide]
ALK [1]
  IC50: 3 nM
ALK [2]; 75% human plasma, read-out: ALK cellular IC50 in 75% human plasma
  IC50: 300 nM
ALK [2]; 75% murine plasma, read-out: ALK cellular IC50 in 75% murine plasma
  IC50: 300 nM
ALK [2]; read-out: ALK cellular IC50
  IC50: 30 nM
FAK [3]
  IC50: 29.5 nM
FAK [4]
  IC50: 944 nM
Adrenergic α1B (R)
  Ki: 2200 nM
Adrenergic α1D (H)
  Ki: 1100 nM
hERG
  IC50: > 10000 nM
Equilibrium solubility; pH 2, simulated gastric fluid, read-out: Equilibrium solubility at pH 2
  solubility thermodynamic: > 3000 µg/mL
Equilibrium solubility; pH 7.4, aqueous buffer, read-out: Equilibrium solubility at pH 7.4
  solubility thermodynamic: 13 µg/mL (≈ 24.1 µM)
[5]
  half-life: 13.2 min
[6]
  half-life: 6.7 min
[7]
  half-life: < 5 min
[8]
  half-life: 10.3 min
[9]
  half-life: 19.9 min
CYP 1A2
  IC50: > 30000 nM
CYP 2C9
  IC50: 1300 nM
CYP 2C19
  IC50: 6800 nM
CYP 2D6
  IC50: 17300 nM
Caco-2 permeability
  Papp: 12.6 ×10⁻⁶ cm/s
Protein binding, mouse
  Protein binding: 95 % bound
Protein binding, dog
  Protein binding: 96 % bound
Protein binding, human
  Protein binding: 99.2 % bound
Rat bioavailability
  Rat bioavailability: 25%
Mouse bioavailability; CD-1 mouse
  Mouse bioavailability: 51%
Mouse bioavailability; Scid mouse
  Mouse bioavailability: 71%
Monkey bioavailability; 10 mg/kg
  bioavailability: 16%
Monkey bioavailability; 30 mg/kg
  bioavailability: 37%
In vivo; 30, 75, 150 mg/kg/day oral, 91 days
  drug-related deaths: no drug-related deaths
In vivo; both, Sprague-Dawley, rat, in vivo, po, 91 days
  dosages with adverse histopathological effects in the kidney persisting through 4-week recovery: ≥ 75 mg/kg/day
In vivo; both, rat, in vivo, po
  NOAEL at 91 days: 30 mg/kg/day
[10]; 80 mg/kg, Days 9 and/or 10
  animals with seizures: 2 animals
[10]; 20, 40, 80/60 mg/kg
  lung gross and histologic findings, early death animals: pulmonary edema was identified in all dose groups
[10]; 20, 40, 80/60 mg/kg daily, 91 days
  morbidity and mortality: morbidity and mortality in two animals dosed with 80/60 mg/kg and likely two additional animals
[10]; 80/60 mg/kg, from Day 28, returned to baseline by end of recovery
  hematology changes: decrease in lymphocytes
[10]; 80/60 mg/kg, returned to baseline by end of recovery
  liver enzymes in surviving animals: increased alanine aminotransferase (ALT) and aspartate aminotransferase (AST)
[11]; 3, 10, 20, 40 mg/kg/day oral, 4 weeks
  morbidity or mortality: did not result in any morbidity or mortality
[11]; both, cynomolgus monkey, in vivo
  dose levels with vacuolated cells in the lungs still present after 4-week recovery: ≥ 20 mg/kg/day
[11]; both, cynomolgus monkey, in vivo, po, 4 weeks
  dose levels with histological effects in the lung (vacuolated cells, increased lung weight): ≥ 10 mg/kg/day
IR
  IC50: 996 nM
CYP3A4; @ 0.3 μM
  CYP3A4 induction in vitro: 0.95 fold
CYP3A4; @ 3.0 μM
  CYP3A4 induction in vitro: 1.3 fold

## CNC(=O)c1ccccc1Nc1nc(Nc2ccc3c(c2OC)CCCC(N2CCN(CCO)CC2)C3)ncc1Cl.Cl (centres unmarked) [CEP-37440 (HCl salt), 2-(5-Chloro-2-{6-[4-(2-hydroxy-ethyl)-piperazin-1-yl]-1-methoxy-6,7,8,9-tetrahydro-5H-benzocyclohepten-2-ylamino}-pyrimidin-4-ylamino)-N-methyl-benzamide hydrochloride]
[12]; 30 mg/kg bid po
  anti-tumor efficacy: tumor regressions
[12]; 30 mg/kg, qd, po
  anti-tumor efficacy: tumor regressions
[12]; 55 mg/kg qd po
  anti-tumor efficacy: tumor regressions
[12]; 12 days treatment
  tolerability, body weight: well tolerated with no overt toxicity or compound-related weight loss
[13]; 30 mg/kg bid po
  anti-tumor efficacy: tumor stasis and partial regressions
[13]; 55 mg/kg qd po
  anti-tumor efficacy: tumor stasis and partial regressions
[13]; 12 days treatment
  tolerability, body weight: well tolerated with no overt toxicity or compound-related weight loss (FIGS. 14 and 15), except at 30 mg/kg, bid dose
